Measurements taken from PubChem BioAssay AID1259408 (Genetic Toxicology Data Bank (GENE-TOX), 2018).
Active and inactive are the calls of the source. How the calls were made is not given here.

Tested on: GENE-TOX genotoxicity assays, various organisms and cells
Assay: GENE-TOX mutagenicity studies
Conditions: for call: Assay Type: In vivo carcinogenicity studies
[1] = Species/Cell Type: Rodents, Sex: Male, Assay Type: Dominant lethal test, Assay Code: DLT-, Evaluation Type: Evaluation A (Pre-1980)
[2] = Species/Cell Type: Salmonella typhimurium (one or more of the five standard strains: TA98, TA100, TA1535, TA1537, and TA1538), Assay Type: Histidine reverse gene mutation, Ames assay, Assay Code: SAL-, Evaluation Type: Evaluation A (Pre-1980)
[3] = Species/Cell Type: Human, Assay Type: Sister-chromatid exchange (SCE) in vitro, Assay Code: SC1T, Evaluation Type: Evaluation B (Post-1980)
[4] = Species/Cell Type: Mouse, Sex: Male, Assay Type: Sperm morphology, Assay Code: SPI-, Evaluation Type: Evaluation A (Pre-1980)
[5] = Species/Cell Type: Nonhuman, Assay Type: Sister-chromatid exchange (SCE) in vitro, Assay Code: SC2+D, Dose Response: With dose response, Evaluation Type: Evaluation B (Post-1980)
[6] = Species/Cell Type: Nonhuman, Assay Type: Sister-chromatid exchange (SCE) in vivo, Assay Code: SC3+, Evaluation Type: Evaluation B (Post-1980)
[7] = Species/Cell Type: Salmonella typhimurium (one or more of the five standard strains: TA98, TA100, TA1535, TA1537, and TA1538), Assay Type: Histidine reverse gene mutation, Ames assay, Assay Code: SAL+, Evaluation Type: Evaluation A (Pre-1980)
[8] = Species/Cell Type: Arabidopsis species, Assay Type: Gene mutation, Assay Code: ARM-, Evaluation Type: Evaluation A (Pre-1980)
[9] = Species/Cell Type: Nonhuman, Assay Code: CCG-L, Evaluation Type: Evaluation A (Pre-1980)
[10] = Species/Cell Type: Mammalian polychromatic erythrocytes, Assay Type: Micronucleus test, chromosome aberrations, Assay Code: MNTT, Evaluation Type: Evaluation A (Pre-1980)
[11] = Species/Cell Type: Salmonella typhimurium (one or more of the five standard strains: TA98, TA100, TA1535, TA1537, and TA1538), Assay Type: Histidine reverse gene mutation, Ames assay, Assay Code: SALT, Evaluation Type: Evaluation A (Pre-1980)
[12] = Species/Cell Type: Mammalian polychromatic erythrocytes, Assay Type: Micronucleus test, chromosome aberrations, Assay Code: MNT+U, Dose Response: Unconfirmed positive response, Evaluation Type: Evaluation B (Post-1980)
[13] = Species/Cell Type: Drosophila melanogaster, Assay Type: Sex-linked recessive lethal gene mutation, Assay Code: SRL+, Evaluation Type: Evaluation A (Pre-1980)
[14] = Species/Cell Type: Nonhuman, Assay Code: CCG+, Evaluation Type: Evaluation A (Pre-1980)
[15] = Species/Cell Type: Salmonella typhimurium (one or more of the five standard strains: TA98, TA100, TA1535, TA1537, and TA1538), Assay Type: Histidine reverse gene mutation, Ames assay, Assay Code: SAL+*, Activation: With metabolic activation, Evaluation Type: Evaluation A (Pre-1980)
[16] = Species/Cell Type: Hordeum vulgare (barley), Assay Type: Chromosome aberrations, Assay Code: HOC+, Evaluation Type: Evaluation A (Pre-1980)
[17] = Species/Cell Type: Neurospora crassa, Assay Type: Aneuploidy, chromosome aberrations, Assay Code: NEN-, Evaluation Type: Evaluation A (Pre-1980)

ClC1=C(Cl)[C@]2(Cl)[C@@H]3[C@@H]4C[C@@H]([C@H]5O[C@@H]45)[C@@H]3[C@@]1(Cl)C2(Cl)Cl
mutagenic call (Species/Cell Type: Chinese hamster lung (V79) cells, Assay Type: Forward gene mutation at the HPRT or ouabain locus, Assay Code: V79+, Evaluation Type: Evaluation A (Pre-1980)): active; positive | mutagenic call (Species/Cell Type: Drosophila melanogaster, Assay Type: Sex-linked recessive lethal gene mutation, Assay Code: SRLT, Evaluation Type: Evaluation A (Pre-1980)): no conclusion | mutagenic call [1]: inactive; negative | mutagenic call (Species/Cell Type: Saccharomyces cerevisiae, Assay Type: Forward and reverse gene mutation, mitotic recombination and gene conversion, host-mediated assay, Assay Code: HME-, Evaluation Type: Evaluation A (Pre-1980)): inactive; negative | mutagenic call (Species/Cell Type: Saccharomyces cerevisiae, Assay Type: Mitotic recombination or gene conversion, Assay Code: YEH-, Evaluation Type: Evaluation A (Pre-1980)): inactive; negative | mutagenic call [2]: inactive; negative

O=C1CN(/N=C/c2ccc([N+](=O)[O-])o2)C(=O)N1
mutagenic call (Species/Cell Type: Escherichia coli WP2, Assay Type: Tryptophan reverse gene mutation, Assay Code: WP2+, Evaluation Type: Evaluation A (Pre-1980)): active; positive | mutagenic call (Species/Cell Type: Escherichia coli WP2 UVRA, Assay Type: Tryptophan reverse gene mutation, Assay Code: WPU+D, Dose Response: With dose response, Evaluation Type: Evaluation A (Pre-1980)): active; positive | mutagenic call (Species/Cell Type: Human diploid fibroblasts, Assay Type: Unscheduled DNA synthesis (UDS) in vitro, DNA effects, Assay Code: UDH-, Evaluation Type: Evaluation A (Pre-1980)): inactive; negative | mutagenic call [3]: no conclusion | mutagenic call (Species/Cell Type: Human, Sex: Male, Assay Type: Sperm morphology, Assay Code: SPHT, Evaluation Type: Evaluation A (Pre-1980)): no conclusion | mutagenic call (Species/Cell Type: Mammalian polychromatic erythrocytes, Assay Type: Micronucleus test, chromosome aberrations, Assay Code: MNT+, Evaluation Type: Evaluation A (Pre-1980)): active; positive | mutagenic call [4]: inactive; negative | call (Species/Cell Type: Nonhuman, Assay Code: CCGT, Evaluation Type: Evaluation A (Pre-1980)): no conclusion | mutagenic call [5]: active; positive | mutagenic call [6]: active; positive | mutagenic call [1]: inactive; negative | mutagenic call (Species/Cell Type: Saccharomyces cerevisiae, Assay Type: Forward and reverse gene mutation, mitotic recombination and gene conversion, host-mediated assay, Assay Code: HME+, Evaluation Type: Evaluation A (Pre-1980)): active; positive | mutagenic call (Species/Cell Type: Saccharomyces cerevisiae, Assay Type: Mitotic recombination or gene conversion, Assay Code: YEC+*, Activation: With metabolic activation, Evaluation Type: Evaluation A (Pre-1980)): active; positive | mutagenic call [7]: active; positive | mutagenic call (Species/Cell Type: Salmonella typhimurium and Saccharomyces cerevisiae, Assay Type: Forward and reverse gene mutation, mitotic recombination and gene conversion, DNA effects, body fluid assay, Assay Code: BFG+, Evaluation Type: Evaluation A (Pre-1980)): active; positive

CN(N=O)C(=O)c1ccc(C(=O)N(C)N=O)cc1
mutagenic call [8]: inactive; negative | mutagenic call (Species/Cell Type: Saccharomyces cerevisiae, Assay Type: Mitotic recombination or gene conversion, Assay Code: YEH+, Evaluation Type: Evaluation A (Pre-1980)): active; positive | mutagenic call (Species/Cell Type: Saccharomyces cerevisiae, Assay Type: Reverse gene mutation, Assay Code: YER-, Evaluation Type: Evaluation A (Pre-1980)): inactive; negative

C[n+]1c2ccccc2cc2cccc(N)c21
mutagenic call (Species/Cell Type: Saccharomyces cerevisiae, Assay Type: Forward gene mutation, Assay Code: YEF+, Evaluation Type: Evaluation A (Pre-1980)): active; positive

NNc1cc2c(nn1)CCN(C(=O)c1ccccc1)C2
mutagenic call [6]: active; positive

NC(Cc1c[nH]c2ccccc12)C(=O)O (stereo not given)
mutagenic call (Species/Cell Type: Human, Sex: Male, Assay Type: Sperm morphology, Assay Code: SPH-, Evaluation Type: Evaluation A (Pre-1980)): inactive; negative

c1cncc([C@@H]2CCCN2)c1
mutagenic call (Species/Cell Type: Nonhuman, Assay Type: Sister-chromatid exchange (SCE) in vitro, Assay Code: SC2+, Evaluation Type: Evaluation B (Post-1980)): active; positive

O=[N+]([O-])[O-].O=[N+]([O-])[O-].O=[N+]([O-])[O-].[Rh+3]
mutagenic call (Species/Cell Type: Bacillus subtilis (H17 vs M45), Assay Type: Rec-assay, spot test, DNA effects (bacterial DNA repair), Assay Code: REW+, Evaluation Type: Evaluation A (Pre-1980)): active; positive

CCCCc1ccc(C(=O)O)nc1
mutagenic call (Species/Cell Type: Bacillus subtilis (H17 vs M45), Assay Type: Rec-assay, spot test, DNA effects (bacterial DNA repair), Assay Code: REW-, Evaluation Type: Evaluation A (Pre-1980)): inactive; negative

O=S1(=O)OC(c2ccc(O)cc2)(c2ccc(O)cc2)c2ccccc21
mutagenic call (Species/Cell Type: Bacillus subtilis (H17 vs M45T), Assay Type: Rec-assay, spot test, DNA effects (bacterial DNA repair), Assay Code: REXT, Evaluation Type: Evaluation A (Pre-1980)): no conclusion

ClCc1ccccn1
call [9]: inactive; negative

CC[N+](=O)[O-]
mutagenic call [10]: no conclusion

NC(=O)N(CCO)N=O
mutagenic call [7]: active; positive

Cn1c[n+](C)cc1[N+](=O)[O-]
mutagenic call [11]: no conclusion

CC[C@@H](CO)NCCN[C@@H](CC)CO
mutagenic call [12]: active; positive

OCc1c2ccccc2c2ccc3cccc4ccc1c2c43
mutagenic call (Species/Cell Type: Chinese hamster lung (V79) cells, Assay Type: Forward gene mutation at the HPRT or ouabain locus, Assay Code: V79+*, Activation: With metabolic activation, Evaluation Type: Evaluation A (Pre-1980)): active; positive | mutagenic call [13]: active; positive | call [14]: active; positive | mutagenic call [15]: active; positive

CCSCCSP(=S)(OC)OC
mutagenic call [12]: active; positive

CCOC(=O)CC(SP(=S)(OC)OC)C(=O)OCC (stereo not given) (tested in a mixture with another compound)
mutagenic call [16]: active; positive

C[C@]12CC[C@@H](O)C[C@@H]1CC[C@@H]1[C@@H]2CC[C@]2(C)C(=O)CC[C@@H]12
mutagenic call [4]: inactive; negative

CC(C(=O)O)c1ccc(N2CC=CC2)c(Cl)c1 (stereo not given)
mutagenic call (Species/Cell Type: Human lymphocytes, Assay Type: Sister-chromatid exchange (SCE) in vivo, Assay Code: SCY+, Evaluation Type: Evaluation B (Post-1980)): active; positive

Cc1ccc2c(c1N)C(=O)c1ccccc1C2=O
call [14]: active; positive

CC(C)=CCOc1c2occc2cc2ccc(=O)oc12
mutagenic call (Species/Cell Type: Human lymphocytes, Assay Type: Sister-chromatid exchange (SCE) in vitro, Assay Code: SCL+, Evaluation Type: Evaluation B (Post-1980)): active; positive | mutagenic call (Species/Cell Type: Human, Assay Type: Sister-chromatid exchange (SCE) in vitro, Assay Code: SC1+, Evaluation Type: Evaluation B (Post-1980)): active; positive

O=c1ccc(=O)[nH][nH]1
mutagenic call (Species/Cell Type: Allium cepa, Assay Type: Chromosome aberrations, Assay Code: ALC+, Evaluation Type: Evaluation A (Pre-1980)): active; positive | mutagenic call [8]: inactive; negative | mutagenic call [13]: active; positive | mutagenic call [16]: active; positive | mutagenic call (Species/Cell Type: Human lymphocytes, Assay Type: Sister-chromatid exchange (SCE) in vitro, Assay Code: SCL+D, Dose Response: With dose response, Evaluation Type: Evaluation B (Post-1980)): active; positive | mutagenic call (Species/Cell Type: Human, Assay Type: Sister-chromatid exchange (SCE) in vitro, Assay Code: SC1+D, Dose Response: With dose response, Evaluation Type: Evaluation B (Post-1980)): active; positive | mutagenic call [10]: no conclusion | mutagenic call [17]: inactive; negative | call [9]: inactive; negative | mutagenic call [5]: active; positive | mutagenic call (Species/Cell Type: Nonhuman, Assay Type: Sister-chromatid exchange (SCE) in vitro, Assay Code: SC2-, Evaluation Type: Evaluation A (Pre-1980)): inactive; negative | mutagenic call [2]: inactive; negative | mutagenic call (Species/Cell Type: Vicia faba, Assay Type: Chromosome aberrations, Assay Code: VIC+D, Dose Response: With dose response, Evaluation Type: Evaluation A (Pre-1980)): active; positive

c1ccc2c(c1)Sc1ccccc1N2CCCN1CCNCC1
mutagenic call (Species/Cell Type: Human lymphocytes, Assay Type: Sister-chromatid exchange (SCE) in vitro, Assay Code: SCLT, Evaluation Type: Evaluation B (Post-1980)): no conclusion | mutagenic call [3]: no conclusion

CC(=O)Oc1cc(OC(C)=O)c2c(=O)c(OC(C)=O)c(-c3ccc(OC(C)=O)c(OC(C)=O)c3)oc2c1
mutagenic call [15]: active; positive

CN(C)CCC=C1c2ccccc2C=Cc2ccccc21
mutagenic call [11]: no conclusion

C[C@@H]1[C@H](O)[C@@H](C)/C=C/C=C/CC/C=C/C=C/C=C/C=C/C(O[C@H]2O[C@H](C)[C@@H](O)[C@H](N)[C@@H]2O)CC2O[C@](O)(CC(O)C(O)CCC(O)CC(O)CC(O)CC(=O)O[C@H]1C)CC(O)C2C(=O)O (stereo not given in full)
mutagenic call [17]: inactive; negative
